Measured values as given in patent US12390536B2, “Antibody-drug complex containing toll-like receptor 7/8 dual agonist compound” (ASTELLAS PHARMA INC., priority 2022, dated 2025).
Structures can show the parent of a compound that is named as a salt. Where two headings read alike, the source gives them in different places.

How the values were obtained:
human TLR7 = molecular target: T1, human TLR7 (Homo sapiens, UniProt Q9NYK1); experiment: TLR7/8 reporter assay (HEK293, NFκB Nanoluc luciferase reporter), human TLR7; assay type: cell-based; conditions: 24-hour incubation; read-out: hTLR7 EC50
T1 construct: expressed in transfected cells
T1 sequence (Q9NYK1 27-1049): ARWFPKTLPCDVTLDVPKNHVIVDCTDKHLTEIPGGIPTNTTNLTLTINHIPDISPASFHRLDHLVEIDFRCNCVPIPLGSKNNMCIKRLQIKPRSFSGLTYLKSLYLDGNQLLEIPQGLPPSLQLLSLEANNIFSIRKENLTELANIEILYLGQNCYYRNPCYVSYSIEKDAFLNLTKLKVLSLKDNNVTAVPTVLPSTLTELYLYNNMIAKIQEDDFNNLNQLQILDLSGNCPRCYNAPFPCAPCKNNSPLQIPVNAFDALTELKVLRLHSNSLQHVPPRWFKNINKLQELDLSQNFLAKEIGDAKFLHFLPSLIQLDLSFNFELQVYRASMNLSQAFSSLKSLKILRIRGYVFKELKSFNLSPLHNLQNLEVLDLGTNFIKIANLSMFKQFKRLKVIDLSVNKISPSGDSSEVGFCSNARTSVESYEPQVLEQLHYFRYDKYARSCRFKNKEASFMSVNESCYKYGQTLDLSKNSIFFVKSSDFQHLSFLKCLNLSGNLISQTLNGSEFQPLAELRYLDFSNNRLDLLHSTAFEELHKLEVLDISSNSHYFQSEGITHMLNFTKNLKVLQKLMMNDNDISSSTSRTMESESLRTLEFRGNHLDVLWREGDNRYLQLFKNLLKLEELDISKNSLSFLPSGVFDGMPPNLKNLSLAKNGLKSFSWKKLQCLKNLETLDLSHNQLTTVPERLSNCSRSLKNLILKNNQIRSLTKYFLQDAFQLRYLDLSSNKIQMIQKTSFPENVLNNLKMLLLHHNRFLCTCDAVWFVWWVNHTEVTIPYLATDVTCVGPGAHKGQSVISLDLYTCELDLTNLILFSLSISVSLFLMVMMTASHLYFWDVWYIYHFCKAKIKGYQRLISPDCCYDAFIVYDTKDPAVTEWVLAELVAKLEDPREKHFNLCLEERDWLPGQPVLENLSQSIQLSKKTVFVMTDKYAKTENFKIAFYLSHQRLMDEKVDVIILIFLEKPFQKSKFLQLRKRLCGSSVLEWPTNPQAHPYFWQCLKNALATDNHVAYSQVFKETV
Procedure: (§1) HEK293 cells (ATCC, #CRL-1573) were co-transfected with an expression vector having a nucleotide sequence encoding a TLR (human TLR7, human TLR8 or mouse TLR7) protein and a Nanoluc PEST luciferase reporter vector having an NFκB response element sequence (Genbank: JQ513377 bases 33 to 84) integrated therein. Thereafter, the transfected cells were cultured in DMEM (Sigma-Aldrich, #D5796-500 mL) containing Geneticin (Gibco, #10131-027) at a final concentration of 800 μg/mL, Hygromycin B (Invitrogen, #10687010) at a final concentration of 500 μg/mL, penicillin streptomycin (Gibco, #15070-063) at a final concentration of 1% and a 10% fetal bovine serum (FBS) (HyClone, #SH30084.03) to obtain a stable cell line for expression.
(§2) To reporter cells obtained above, DMEM containing 10% FBS was added to prepare a suspension of 1×10^5 cells/mL. The suspension was added to the wells of a 384-well white plate coated with collagen I (hereinafter referred to as “384-well plate”, Corning, #356703) at a rate of 20 μL per well. The cells were cultured in the conditions of 37° C. and 5% CO2, overnight (18 hours) and allowed to adhere to the plate. A test sample was dissolved in DMSO. The solution was diluted by adding DMEM medium containing 10% FBS to the solution such that the concentration becomes 5-fold as high as a final concentration. The diluted DMEM medium was added to the wells of the 384-well plate at a ratio of 5 μL/well. After the medium was further incubated in the conditions of 37° C. and 5% CO2 for 24 hours, the plate was taken out and allowed to stand still at room temperature for 10 minutes. Thereafter, chemiluminescence was measured using Nano-Glo Luciferase Assay System (Promega, #N1120) and EnVision 2104 (PerkinElmer) plate reader. A dose-response curve was prepared for each test sample and the EC50 value was obtained as a concentration at 50% of the maximum signal. In the table, hTLR7 represents human TLR7 and hTLR8 represents human TLR8; and mTLR7 represents mouse TLR7. A data item attached with an asterisk (*) indicates the result of 7 hour-incubation and other data items are the results of 24-hour incubation.

human TLR8 = molecular target: T2, human TLR8 (Homo sapiens, UniProt Q9NR97); experiment: TLR7/8 reporter assay (HEK293, NFκB Nanoluc luciferase reporter), human TLR8; assay type: cell-based; conditions: read-out: hTLR8 EC50
T2 construct: expressed in transfected cells
T2 sequence (Q9NR97 27-1041): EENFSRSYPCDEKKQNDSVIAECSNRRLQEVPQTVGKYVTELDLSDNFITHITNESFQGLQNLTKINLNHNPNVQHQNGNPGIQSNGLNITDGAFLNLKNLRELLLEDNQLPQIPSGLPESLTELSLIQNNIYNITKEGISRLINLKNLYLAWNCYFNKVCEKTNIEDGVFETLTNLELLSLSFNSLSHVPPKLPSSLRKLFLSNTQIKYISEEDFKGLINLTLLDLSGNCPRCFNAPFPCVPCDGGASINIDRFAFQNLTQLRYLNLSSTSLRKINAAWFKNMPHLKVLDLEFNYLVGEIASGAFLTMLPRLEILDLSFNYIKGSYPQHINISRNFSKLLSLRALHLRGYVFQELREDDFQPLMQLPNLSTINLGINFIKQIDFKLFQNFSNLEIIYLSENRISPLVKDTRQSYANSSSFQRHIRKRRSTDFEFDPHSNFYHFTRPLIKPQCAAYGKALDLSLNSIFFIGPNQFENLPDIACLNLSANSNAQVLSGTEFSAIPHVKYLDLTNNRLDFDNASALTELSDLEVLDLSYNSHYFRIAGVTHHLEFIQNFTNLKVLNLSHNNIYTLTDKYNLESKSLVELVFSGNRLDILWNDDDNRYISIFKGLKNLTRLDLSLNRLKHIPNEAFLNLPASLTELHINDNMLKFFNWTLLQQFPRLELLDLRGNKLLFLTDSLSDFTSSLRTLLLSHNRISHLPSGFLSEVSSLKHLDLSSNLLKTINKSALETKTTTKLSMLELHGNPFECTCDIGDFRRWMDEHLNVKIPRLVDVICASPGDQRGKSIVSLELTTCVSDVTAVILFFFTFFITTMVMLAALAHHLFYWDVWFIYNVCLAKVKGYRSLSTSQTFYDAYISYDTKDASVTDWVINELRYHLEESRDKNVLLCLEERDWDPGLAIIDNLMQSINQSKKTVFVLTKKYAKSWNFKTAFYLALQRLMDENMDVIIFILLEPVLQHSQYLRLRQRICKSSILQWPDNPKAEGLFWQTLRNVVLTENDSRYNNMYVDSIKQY
Procedure: as §1, §2

SMILES	EC50 (human TLR7) [nM]	EC50 (human TLR8; 24-hour incubation) [nM]	EC50 (human TLR8; asterisk (*): 7 hour-incubation) [nM]
CCCCCNc1nc(N)nc2ccn(Cc3ccc(CN4CCNC[C@H]4CF)cc3OC)c12 [Ex1, 5-[(4-{[(2S)-2-(fluoromethyl)piperazin-1-yl]methyl}-2-methoxyphenyl)methyl]-N^4-pentyl-5H-pyrrolo[3,2-d]pyrimidine-2,4-diamine]	1.12	220	–
CCCCCNc1nc(N)nc2ccn(Cc3ccc(CNC4CC4)cc3OC)c12 [Ex3, 5-({4-[(cyclopropylamino)methyl]-2-methoxyphenyl}methyl)-N^4-pentyl-5H-pyrrolo[3,2-d]pyrimidine-2,4-diamine]	3.47	2160	–
CCCCCNc1nc(N)nc2c(Cl)cn(Cc3ccc(CN4CCC[C@H]4CO)cc3OC)c12 [Ex6, {(2S)-1-[(4-{[2-amino-7-chloro-4-(pentylamino)-5H-pyrrolo[3,2-d]pyrimidin-5-yl]methyl}-3-methoxyphenyl)methyl]pyrrolidin-2-yl}methanol]	3.22	964	–
CCCCCNc1nc(N)nc2ccn(Cc3ccc(CC4CCNCC4)cc3OC)c12 [Ex9, 5-({2-methoxy-4-[(piperidin-4-yl)methyl]phenyl}methyl)-N^4-pentyl-5H-pyrrolo[3,2-d]pyrimidine-2,4-diamine]	2.78	1180	–
CCCCCNc1nc(N)nc2ccn(Cc3ccc(CN4CCNC[C@@H]4CF)cc3OC)c12 [Ex10, 5-[(4-{[(2R)-2-(fluoromethyl)piperazin-1-yl]methyl}-2-methoxyphenyl)methyl]-N^4-pentyl-5H-pyrrolo[3,2-d]pyrimidine-2,4-diamine]	2.74	716	–
CCCCCNc1nc(N)nc2ccn(Cc3ccc(CNCC4CCC4)cc3OC)c12 [Ex12]	1.87	–	685
CCCCCSc1nc(N)nc2ccn(Cc3ccc(CN4CC[C@H]4CO)cc3OC)c12 [Ex13]	23.3	6220	–
CCCCCSc1nc(N)nc2ccn(Cc3ccc(CN4CCC(O)CC4)cc3OC)c12 [Ex14]	28.8	6590	–
CCCCCSc1nc(N)nc2ccn(Cc3ccc(CN4CC[C@@H](CN)C4)cc3OC)c12 [Ex15]	138	4880	–
CCCCCNc1nc(N)nc2c(Cl)cn(Cc3ccc(CN4CC[C@H]4CO)cc3OC)c12 [Ex17]	2.52	3740	–
CCCCCNc1nc(N)nc2c(Cl)cn(Cc3ccc(CN4CCC[C@H]4C(C)(C)O)cc3OC)c12 [Ex18]	6.57	3630	–

The remaining molecules from weak to strong by EC50 (human TLR7), led by results:

EC50 (human TLR7) [nM]	EC50 (human TLR8; 24-hour incubation) [nM]	EC50 (human TLR8; asterisk (*): 7 hour-incubation) [nM]	SMILES
54.2	2480	–	CCCCCSc1nc(N)nc2ccn(Cc3ccc(CN4CCNCC4)cc3OC)c12 [Ex4, 5-({2-methoxy-4-[(piperazin-1-yl)methyl]phenyl}methyl)-4-(pentylsulfanyl)-5H-pyrrolo[3,2-d]pyrimidin-2-amine]
45	11700	–	CCCCCSc1nc(N)nc2ccn(Cc3ccc(CN4CCC[C@H]4CO)cc3OC)c12 [Ex5, {(2S)-1-[(4-{[2-amino-4-(pentylsulfanyl)-5H-pyrrolo[3,2-d]pyrimidin-5-yl]methyl}-3-methoxyphenyl)methyl]pyrrolidin-2-yl}methanol]
17.8	13300	–	COc1cc(CN2CCNC[C@H]2CF)ccc1Cn1ccc2nc(N)nc(SCc3cc(C)on3)c21 [Ex11]
11.3	2110	–	CCCCCNc1nc(N)nc2cc(C)n(Cc3ccc(CN4CCNCC4)cc3OC)c12 [Ex8, 5-({2-methoxy-4-[(piperazin-1-yl)methyl]phenyl}methyl)-6-methyl-N^4-pentyl-5H-pyrrolo[3,2-d]pyrimidine-2,4-diamine hydrochloride]
8.1	2000	–	CCCCCNc1nc(N)nc2c(Br)cn(Cc3ccc(CN4CCC[C@H]4CO)cc3OC)c12 [Ex7, {(2S)-1-[(4-{[2-amino-7-bromo-4-(pentylamino)-5H-pyrrolo[3,2-d]pyrimidin-5-yl]methyl}-3-methoxyphenyl)methyl]pyrrolidin-2-yl}methanol]
1.77	1970	–	CCCCCNc1nc(N)nc2ccn(Cc3ccc(CN4CCN[C@@H](CF)C4)cc3OC)c12 [Ex2, 5-[(4-{[(3R)-3-(fluoromethyl)piperazin-1-yl]methyl}-2-methoxyphenyl)methyl]-N^4-pentyl-5H-pyrrolo[3,2-d]pyrimidine-2,4-diamine (trifluoroacetic acid) salt]
